“And” between values parts separate entries of the source, which are not always exact repeats. Equal entries are not always repeated.
Key:
PPM1D1–420 = target: T1, PPM1D1–420 (Homo sapiens, UniProt O15297); assay: p38 MAPK enzymatic assay (LC/MS, dephosphorylation of T180); type: biochemical; conditions: for P38 Assay, signal relative to 0 nM GSK (=100): PPM1D1-420, individual runs, listed as GSK
T1 construct: PPM1D1–420 was PCR-amplified from the synthesized gene with BsaI sites; His(6)-SUMO (N, cleaved yes); made in house; host or cells: E. coli BL21 (DE3)
T1 sequence (O15297 1-420): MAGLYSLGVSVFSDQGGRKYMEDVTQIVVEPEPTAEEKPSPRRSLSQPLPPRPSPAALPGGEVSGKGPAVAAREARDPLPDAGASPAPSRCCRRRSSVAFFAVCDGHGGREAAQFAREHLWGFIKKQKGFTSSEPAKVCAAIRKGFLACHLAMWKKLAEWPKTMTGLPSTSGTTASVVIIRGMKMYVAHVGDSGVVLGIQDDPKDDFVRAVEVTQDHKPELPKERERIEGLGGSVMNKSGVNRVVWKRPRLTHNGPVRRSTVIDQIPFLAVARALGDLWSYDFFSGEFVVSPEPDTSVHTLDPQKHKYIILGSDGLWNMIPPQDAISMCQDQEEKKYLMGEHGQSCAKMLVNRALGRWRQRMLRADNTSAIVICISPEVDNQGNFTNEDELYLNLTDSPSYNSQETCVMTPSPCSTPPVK
Experimental: (§1) To generate the double phosphorylated form of p38 MAPK for the LC/MS enzymatic PPM1D assay, 20 µM p38 MAPK was incubated with 100 nM MKK6 in 50 mM HEPES pH 7.4, 10 mM ATP, 40 mM MgCl2, and 100 µM TCEP at RT for 2 h. The reaction mixture was diluted 2-fold with 20 mM HEPES pH 7.4, 300 mM NaCl, 100 µM TCEP, and 1 mM MgCl2 and passed over a Superdex 200 26/600 column equilibrated with 20 mM HEPES pH 7.4, 150 mM NaCl, 100 µM TCEP, and 1 mM MgCl2 to remove excess ATP and MKK6 from the phosphorylated p38 MAPK (p38PP) protein. The protein was concentrated and stored in aliquots for single time usage at −80 °C.
(§2) The enzymatic activity of the PPM1D constructs was measured by quantifying the dephosphorylation of the substrate protein p38PP by LC/MS. Assays were run in 384-well plates (Axygen; #P-384-120SQ-C) in a final volume of 80 µL per well. The buffer consisted of 20 mM HEPES, 20 mM NaCl, 20 mM MgCl2 and 0.1 mM TCEP, at a pH of 7.5. The reaction was initiated by addition of the p38PP substrate to a solution containing 10 nM PPM1D to a final concentration of 300 nM for p38PP. The plate was then incubated at room temperature and the reaction quenched after 15 min increments with formic acid to a final concentration of 6% (v/v) up to 120 min. For IC50 measurements, the GSK2830371 compound was pre-incubated with the PPM1D constructs in a 2% DMSO-containing buffer for 10 min prior to the addition of the substrate and the reactions were quenched after 2 h. In both experiments, BSA was added to a final concentration of 0.2 µM during the quench step as a carrier protein and injection control for the LC/MS. The plate was then sealed and spun down at 1500 × g for 1 min prior to LC/MS analysis. Plates were analyzed within the same day of the quench step.
(§3) Substrate and product detection was achieved by multiple-reaction monitoring (MRM) using a Waters Acquity UPLC chromatography system connected to an Xevo TQ-XS mass spectrometer (Waters, Milford, MA). Source parameters were set as follows: polarity ES+, capillary 2.0 kV, cone voltage, 50 V; collision energy, 5 V; cone gas flow, 200 L/h; collision gas flow, 0.16 mL/min; source temperature, 150 °C; desolvation temperature, 500 °C; and desolvation gas flow, 800 L/h. Analytes were separated using an Agilent PLRP-S Reversed-Phase column (5 µm; 2.1 × 50 mm, 300 Å Agilent Technologies, Santa Clara, CA) at 60 °C. Sample storage temperature was set to 15 °C. Mobile phases consisted of 0.1% (v/v) formic acid (Millipore EMSURE) in LC/MS grade water (JTBaker) and 0.1% v/v formic acid in acetonitrile (Honeywell). Initial column conditions were set to […]. Proteins were eluted using a 1.5 min gradient of 5–98% acetonitrile at 0.4 ml/min. MassLynx and TargetLynx software (Waters, version 4.2) were used for sample acquisition and data analysis, respectively. Analytes were quantified by integration of peak areas under the curve using the transitions 941.10 to 941.05 m/z for P38PP (substrate) and 939.10 to 939.09 m/z for P38P (product). Areas were normalized for instrumental variation by dividing by the BSA peak area (1209.23 to 1209.2 m/z transition) measured in the same well.

PPM1DΔhinge = target: T2, PPM1DΔhinge (Homo sapiens, UniProt O15297, DEL155-163/G166S/M164G/T165G); assay: as above; type: biochemical; conditions: for P38 Assay, signal relative to 0 nM GSK (=100): PPM1DΔHinge, individual runs, listed as GSK
T2 construct: PPM1D1–154-GGS-167–420 (PPM1D∆hinge); His(6)-SUMO (N, cleaved yes); made in house; host or cells: E. coli BL21 (DE3)
T2 sequence (O15297 with tags, fused parts or gaps DEL155-163/M164G/T165G/G166S): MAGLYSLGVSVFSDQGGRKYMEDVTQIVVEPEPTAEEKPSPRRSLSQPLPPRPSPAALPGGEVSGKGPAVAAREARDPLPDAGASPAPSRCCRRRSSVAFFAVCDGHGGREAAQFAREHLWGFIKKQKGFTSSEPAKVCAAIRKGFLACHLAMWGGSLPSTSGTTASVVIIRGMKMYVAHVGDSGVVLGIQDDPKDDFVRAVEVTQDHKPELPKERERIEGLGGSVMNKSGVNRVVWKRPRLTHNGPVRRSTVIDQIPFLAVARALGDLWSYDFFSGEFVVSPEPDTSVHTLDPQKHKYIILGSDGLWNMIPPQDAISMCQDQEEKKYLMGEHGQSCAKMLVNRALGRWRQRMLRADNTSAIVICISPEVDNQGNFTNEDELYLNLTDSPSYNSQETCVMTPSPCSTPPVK
Experimental: as §1, §2, §3

Cc1ncc(Cl)cc1NCc1ccc(C(=O)N[C@@H](CC2CCCC2)C(=O)NC2CC2)s1 [GSK2830371]
IC50 (PPM1D1–420; PPM1D1–420, full length p38 MAPK substrate, LC/MS): ~6 nM
P38 Assay, signal relative to 0 nM GSK (=100) (PPM1D1–420; [GSK] 0.49 nM): 93.1001 and 100 and 88.922
P38 Assay, signal relative to 0 nM GSK (=100) (PPM1D1–420; [GSK] 0.98 nM): 86.1215 and 81.7339 and 63.3381
P38 Assay, signal relative to 0 nM GSK (=100) (PPM1D1–420; [GSK] 1.95 nM): 86.7639 and 71.6152 and 63.7723
P38 Assay, signal relative to 0 nM GSK (=100) (PPM1D1–420; [GSK] 3.9 nM): 51.5439 and 51.2694 and 46.219
P38 Assay, signal relative to 0 nM GSK (=100) (PPM1D1–420; [GSK] 7.8 nM): 29.2083 and 28.1523 and 24.0173
P38 Assay, signal relative to 0 nM GSK (=100) (PPM1D1–420; [GSK] 15.6 nM): 16.4584 and 13.8278 and 11.5309
P38 Assay, signal relative to 0 nM GSK (=100) (PPM1D1–420; [GSK] 31.2 nM): 11.2856 and 7.234 and 5.456
P38 Assay, signal relative to 0 nM GSK (=100) (PPM1D1–420; [GSK] 62.5 nM): 6.81 and 5.822 and 3.842
P38 Assay, signal relative to 0 nM GSK (=100) (PPM1D1–420; [GSK] 125 nM): 6.3041 and 6.187 and 2.5614
P38 Assay, signal relative to 0 nM GSK (=100) (PPM1D1–420; [GSK] 250 nM): 4.442 and 3.236 and 2.029
P38 Assay, signal relative to 0 nM GSK (=100) (PPM1D1–420; [GSK] 500 nM): 3.225 and 4.879 and 3.8956
increase of IC50 in p38 MAPK assay upon hinge deletion (PPM1DΔhinge; PPM1DΔhinge versus PPM1D1–420): 100 fold
P38 Assay, signal relative to 0 nM GSK (=100) (PPM1DΔhinge; [GSK] 1.953 nM): 100.358 and 104.09 and 99.8488
P38 Assay, signal relative to 0 nM GSK (=100) (PPM1DΔhinge; [GSK] 3.906 nM): 98.4717 and 98.7741 and 94.5709
P38 Assay, signal relative to 0 nM GSK (=100) (PPM1DΔhinge; [GSK] 7.813 nM): 97.8741 and 98.6995 and 87.7716
P38 Assay, signal relative to 0 nM GSK (=100) (PPM1DΔhinge; [GSK] 15.625 nM): 91.5216 and 88.9322 and 63.2104
P38 Assay, signal relative to 0 nM GSK (=100) (PPM1DΔhinge; [GSK] 31.25 nM): 84.0592 and 89.4059 and 56.2735
P38 Assay, signal relative to 0 nM GSK (=100) (PPM1DΔhinge; [GSK] 62.5 nM): 71.608 and 76.249 and 61.6546
P38 Assay, signal relative to 0 nM GSK (=100) (PPM1DΔhinge; [GSK] 125 nM): 62.6262 and 54.2715 and 52.5307
P38 Assay, signal relative to 0 nM GSK (=100) (PPM1DΔhinge; [GSK] 250 nM): 49.6072 and 48.4313 and 45.7898
P38 Assay, signal relative to 0 nM GSK (=100) (PPM1DΔhinge; [GSK] 500 nM): 38.0355 and 40.9669 and 36.3652
P38 Assay, signal relative to 0 nM GSK (=100) (PPM1DΔhinge; [GSK] 1000 nM): 32.2867 and 33.3807 and 27.8112
